Measured values reported in US20170173060A1, “ACTIVATION OF THE ENDOGENOUS ILEAL BRAKE HORMONE PATHWAY FOR ORGAN REGENERATION AND RELATED COMPOSITIONS, METHODS OF TREATMENT, DIAGNOSTICS, AND REGULATORY SYSTEMS” (VOLANT HOLDINGS GMBH, priority 2014, published 2017).
Entries after “also recorded” stand apart in the source; their conditions may differ.

Legend:
[1] = tested on: human abdominal subcutaneous (AbdSc) adipocytes; conditions: cited from earlier work
[2] = 1500 mg taken in three doses of 500 mg; cited from earlier work
[3] = tested on: patients with initial abnormal values; test: Rate of change of weight, HBA1c, HDL, TG and AST in RYGB, Brake, combination and control patients (FIGS. 18-22); assay type: in vivo, human
[4] = Case of patient (T2D, chronic hepatitis B, steatosis) on Januvia and Brake; assay type: in vivo, human; conditions: 6 months after stopping Brake, sitagliptin continued
Experimental: Both their Triglycerides and hepatic enzymes were 2-3× elevated. […] Their diabetic control deteriorated on this regimen, to the point where they were considered a candidate for insulin. As an alternative, patient was started on Januvia (sitagliptin) 100 mg per day and 7 pills of Brake™. After 6 months treatment, their HBA1c became normal at 6.0, indicating pancreatic regeneration from the combination product. […] They lost 35 lbs. After 6 months, they stopped the Brake™ therapy but continued sitagliptin. By 6 months later they began to gain weight and their HBA1c rose above 6.0, whereupon they resumed taking Brake™ tablets with return of their HBA1c to normal once again. This case taught the inventors that Brake™ associated organ regeneration is a long lived effect of the combination but not a permanent effect. In fact it is often notable that RYGB patients lose the effects of the surgical procedure after two or more years, and it appears that resumption of dietary indiscretion leads to recrudescence of the metabolic syndrome. Patients are thus advised to be vigilant, particularly if weight gain resumes.

patients with RA = conditions: human, in vivo; cited from earlier work
C57BL/6J mice = conditions: 1 mg/kg body weight, cited from earlier work
[5] = tested on: high-risk cardiovascular disease (CVD) patients; conditions: cited from earlier work
[6] = tested on: hypercholesterolemic New Zealand White rabbits; conditions: cited from earlier work
MIN-6 cells = conditions: cited from earlier work
[7] = tested on: patients with metabolic syndrome; test: FS index of metabolic syndrome tracked over time in patient groups (neural net model); assay type: in vivo, human
Excerpt: The FS index (Fayad/Schentag) of MS (the relevant equation for which appears in attached FIG. 15) considers the following: Fasting Blood Glucose, Fasting Insulin, HBA1c, BMI, AST, Triglycerides, Glucose Supply-Demand (SD) index, and Proinsulin. Each parameter is mathematically arranged to increase as MS worsens, and weighted approximately equally in the prediction of MS progression and risk for organ damage.
The FS index was then applied to well-studied patient populations already in databases, using a neural net model and the equation set forth in FIG. 15 (and as above). The database included previously published 50 patients with T2D having CV events principally myocardial infarctions, and controls of a precisely matched group of T2D patients without these events (2, 3). […] For each study patient, we had complete access to all raw data, measured vital signs, culture results, and clinician assessments. […]
FS index values were calculated from serial laboratory and clinical data over timeframes ranging between 2 and 10 years. […]
The FS index was applied to well-studied patient populations already in our databases, using a neural net model. […] FS index values were calculated from serial laboratory and clinical data over timeframes ranging 2-10 years. […]

people with stable COPD = conditions: in vivo; cited from earlier work

lipopolysaccharide [LPS]
TLR-2 protein expression increase [1]: twofold | TNF-alpha secretion ([1]; control 1.0+/-0.83): 32.8 ± 6.23 pg/mL | IL-6 secretion ([1]; control 2.7+/-0.5): 4.8 ± 0.3 ng/mL

COc1ccc2cc3[n+](cc2c1OC)CCc1cc2c(cc1-3)OCO2 [Berberine]
anti-diabetic effects (biomarkers of type 2 diabetes) [2]: appear to be equal to those of 1500 mg Metformin or 4 mg Glibenclamide

CC(C)c1c(C(=O)Nc2ccccc2)c(-c2ccccc2)c(-c2ccc(F)cc2)n1CC[C@@H](O)C[C@@H](O)CC(=O)O [atorvastatin]
HDL change ([3]; FIG. 20, control patients mostly atorvastatin 10 mg): essentially no change in HDL | triglyceride (TG) changes ([3]; FIG. 21): either stayed the same or had a minor drop in TG | AST concentrations and rate of change ([3]; FIG. 22): little effect on hepatic inflammation

N[C@@H](CC(=O)N1CCn2c(nnc2C(F)(F)F)C1)Cc1cc(F)c(F)cc1F [sitagliptin]
HBA1c [4]: above 6.0

CN(Cc1cnc2nc(N)nc(N)c2n1)c1ccc(C(=O)N[C@@H](CCC(=O)O)C(=O)O)cc1 [MTX, Methotrexate]
risk of CVD events (patients with RA): associated with a reduced risk of CVD events

CC(C)=CCC[C@](C)(O)[C@H]1CC[C@]2(C)[C@@H]1[C@H](O)C[C@@H]1[C@@]3(C)CC[C@H](O[C@@H]4O[C@H](CO)[C@@H](O)[C@H](O)[C@H]4O)C(C)(C)[C@@H]3CC[C@]12C [GS-Rh2, ginsenoside Rh2]
glycemia and glucose tolerance (C57BL/6J mice; within 14 days post-PPx): improved glycemia and glucose tolerance | beta-cell proliferation (C57BL/6J mice): increased beta-cell proliferation percentages

COc1cc(OC)c2c(=O)[nH]c(-c3cc(C)c(OCCO)c(C)c3)nc2c1 [RVX-208]
change of ratio of necrotic core to dense calcium (NC/DC) ([5]; VH-IVUS, treated patients n=61): −7.5% | incidence of MACE lower vs. placebo ([5]; patients with hsCRP >2.0 mg/dL): 63%

CCCCCCCCCCC(C)(C)C(=O)Nc1c(OC)cc(OC)cc1OC [CI-976, 2,2-dimethyl-N-(2,4,6-trimethoxyphenyl) dodecanamide]
decrease of cholesteryl ester enrichment in thoracic aorta ([6]; rabbit, in vivo): 46% | effect on plasma triglycerides ([6]; rabbit, in vivo): no effect | reduction of foam cell area in iliac-femoral lesion ([6]; relative to the initiation of intervention, dose that did not lower plasma cholesterol): 27-29%

COc1cc2ncnc(Nc3cccc(Cl)c3)c2cc1OC [AG1478]
effect on BTC proliferative effect (MIN-6 cells): blocked

CN(C)C(=N)N=C(N)N [metformin]
parameters that would indicate regeneration ([7]; control patients, even at dosages of 2.0 grams daily): no significant change | pattern of FS index over time ([7]; metformin alone, 61 patients (FIG. 5)): rises; also recorded: flat or slowly rising | weight change ([3]; FIG. 18): either stayed the same or lost a few pounds | HBA1c change ([3]; FIG. 19): either stayed the same or had a minor drop in HBA1c | effect on metabolic syndrome biomarkers when given alone ([3]; FIGS. 18-21 control patients): little effect

COc1cc(/C=C(\C#N)C(N)=O)cc(CSc2nc3ccccc3s2)c1O [AG825]
effect on BTC proliferative effect (MIN-6 cells): blocked

O=C(Nc1c(Cl)cncc1Cl)c1ccc(OC(F)F)c(OCC2CC2)c1 [Roflumilast]
body weight during the trial period (people with stable COPD): weight loss
